Six compounds from US8722729B2, “Unsaturated fatty acid monoesters and diesters on ascorbic acid and cosmetic uses thereof” (Pierre Fabre Dermo-Cosmetique, priority 2009, dated 2014) can be followed below.

“Also recorded” adds a separate entry of the source.

Experiment [1] addresses T1, hyaluronidase of bovine origin (BTH, Bovine Testis hyaluronidase) (Bos taurus, UniProt Q2YDK3).
T1 sequence (Q2YDK3 1-553): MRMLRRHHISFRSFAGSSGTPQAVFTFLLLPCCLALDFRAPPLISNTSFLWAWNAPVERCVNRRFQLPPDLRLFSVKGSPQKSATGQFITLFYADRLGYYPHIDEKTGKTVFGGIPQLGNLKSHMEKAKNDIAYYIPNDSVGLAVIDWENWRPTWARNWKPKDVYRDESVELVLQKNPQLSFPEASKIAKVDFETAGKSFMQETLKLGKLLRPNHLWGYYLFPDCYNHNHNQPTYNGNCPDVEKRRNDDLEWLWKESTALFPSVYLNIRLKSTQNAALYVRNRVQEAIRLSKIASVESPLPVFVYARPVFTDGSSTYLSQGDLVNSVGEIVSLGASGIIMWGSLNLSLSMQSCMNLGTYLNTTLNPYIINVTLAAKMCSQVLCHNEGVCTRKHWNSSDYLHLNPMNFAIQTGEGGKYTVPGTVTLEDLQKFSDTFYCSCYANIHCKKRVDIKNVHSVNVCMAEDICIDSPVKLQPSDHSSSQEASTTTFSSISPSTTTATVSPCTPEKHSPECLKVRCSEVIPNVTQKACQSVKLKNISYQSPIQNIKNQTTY
Kind of experiment: Assay of hyaluronidase activity (residual HA, HA-ELISA). The class given is biochemical. The protocol:
Hyaluronidase activity is measured by the assay of residual hyaluronic acid (HA). The substrate is fixed to a carrier then placed in the presence of an enzyme and a quantity of compound to be tested. The residual HA i.e. the non-hydrolyzed HA is assayed using a HA-Elisa detection system: Hyaluronan enzyme-linked immunosorbent assay (Echelon Biosciences®).
0.5 units of hyaluronidase of bovine origin (BTH, Bovine Testis hyaluronidase) were pre-incubated at 37° C. with the compound to be tested. This mixture was deposited on the HA fixed to the surface of a microplate well. The enzymatic reaction took place at pH 7.2n at 37° C. Washing was followed by a recognition step of residual HA by hyaluronectin (NH). The quantity of bonded NH was measured by ELISA using an anti-NH antibody conjugated with alkaline phosphatase. The p-nitrophenyl phosphate disodium salt (pnNpp) substrate of the phosphatase allows spectrometric detection at 405 nm. (Delpech B et al., Analytical Biochemistry 149, 555(565 (1985); Robert Stern et al. Analytical Biochemistry 251, 263-269 (1997)). OD intensity was correlated with the quantity of residual HA. The quantity of residual HA is directly linked to enzymatic activity. In the presence of an inhibitor, the larger the quantity of residual HA the more the sample is inhibiting. A percentage inhibition of hyaluronidase will be expressed.
Therefore the net enzymatic activities were calculated which represent the difference in mean gross activity without enzyme and the gross activity of the enzyme with or without the compound to be tested.
The percentage enzymatic inhibition related to the compound to be tested was calculated as follows: % inhibition=(Maximum net enzymatic activity)−Net enzymatic activity in the presence of the compound to be tested)/Maximum net enzymatic activity.
where the maximum net enzymatic activity represents the mean net enzymatic activity of 0.5 U.
On the technique in general: ELISA stands for enzyme-linked immunosorbent assay.

The subject of a further experiment is B16-F10 cells. Kind of experiment: Assay of melanin in B16-F10 cells (colorimetric, α-MSH stimulated). The settings on record: for inhibition at 10 µM / inhibition at 20 µM / IC50 / inhibition at 50 µM / inhibition at 100 µM: Mus musculus; for inhibition at 10 µM / inhibition at 20 µM / inhibition at 50 µM / inhibition at 100 µM: B16-F10, 72 hours, read-out: Percentage inhibition of intracellular melanin; for IC50: B16-F10, α-MSH stimulated, read-out: IC50 intracellular melanin. The class given is cell-based, murine. Here is the method:
Similarly, to evidence the depigmenting activity of the compounds of general formula (I) according to the invention, the effect of these compounds was measured on the synthesis of melanin by colorimetric assay on a cell line of murine melanomas: line B16-F10.
This is a test to measure the synthesis of melanin by colorimetric assay on a cell line of murine melanomas: line B16-F10. This test allows the evaluation of the depigmenting property of active ingredients.
The B16-F10 cells were seeded onto 96-well plates in DMEM medium supplemented with FCS (fetal calf serum) and incubated 24 hours at 37° C., 5% CO2. The cells were then stimulated with α-MSH (to stimulate the synthesis of melanin, the stimulation observed was about 150%) and treated 72 hours with the active ingredients to be tested. Each concentration of active ingredient was tested at least in triplicate. Total melanin followed by intracellular melanin dissolved in lysis buffer were then assayed by absorbency reading at 405 nm. The total proteins were determined in the lysate and the results are expressed in mg melanin/mg proteins. The percentage activity was calculated as follows: […]
A negative value indicates an inhibition, whereas a positive value indicates induced synthesis of melanin.

Experiment [2] relates to Human dermal papilla cells. Kind of experiment: In vitro stimulation of the proliferation of dermal papilla cells (BrdU incorporation). In kind it is cell-based. Here is the method: Human dermal papilla cells (Promocell) were placed in culture and held in early passage culture in DMEM medium supplemented with 10% FCS. They were then seeded in a 96-well plate in DMEM medium supplemented with 10% FCS for 12 h. The culture medium was replaced by serum-free DMEM medium then by DMEM supplemented with 1% FCS and molecules 1, 2, 3 and 4 at the different tested concentrations After incubation for 60 h, cell proliferation was evaluated by incorporation of BrdU.
The diagrams in appended FIG. 1 show the increase in BrdU incorporation and the stimulated cellular proliferation of the cells in the presence of the different molecules (as a percent of the control).
On the technique in general: Uptake of a labelled nucleoside into DNA is a usual measure of proliferation.

Experiment [3] concerns human hair follicle. Kind of experiment: Stimulation of the growth of the human hair follicle (Philpott culture). The settings on record: 15 μM; for D4 % activity (hair growth stimulation compared with the control) / D4 % growth: 4 days' culture; for D8 % activity (hair growth stimulation compared with the control) / D8 % growth: 8 days' culture. In kind it is cell-based. Here is the method:
(§1) Biopsies of the occipital region of a human scalp were obtained from operative waste. The hair follicles were isolated by micro-dissection under binocular magnification. They were individually placed in culture following Philpott's technique (Philpott M P et al, J Cell Sci. 97:463-471, 1990). The hair follicles in anagen phase were incubated in 24-well culture dishes in the presence of William's medium supplemented with 10 μg/mL Insulin, 10 μg/mL Transferrin, 10 ng/mL Hydrocortisone, 1 mM Glutamax I, 100 U/mL Penicillin, 100 μg/mL Streptomycin, 250 ng/mL Amphotericin B and in the presence of molecules 3 or 4 for 11 days. The incubation medium was regularly renewed. The lengthening (in μm) of each hair follicle was measured at 4 and 8 days' culture in captured images of the hair follicles.
The diagrams in appended FIG. 2 show the effect of molecules 3 and 4 on the lengthening of hair follicles after incubation for 4 days and for 8 days.
The following table (Table 5) gives the growth percentages obtained for each treatment condition and the percentages for stimulated hair growth obtained with molecules 3 and 4 compared with the control.

In experiment [4] the test system is human hair follicle. Put plainly: Evaluation of hair bulb degeneration (apoptotic follicles at D11). In kind it is cell-based. The protocol:
as §1
The degeneration of the follicle when kinetics cease after 11 culture days, is evaluated by observation of morphological damage of the hair bulb (rounding, deformation). The percentage apoptosis is calculated by counting the number of apoptotic hair follicles relative to the total number of follicles

Where [5] appears, read: 0.5 U BTH, read-out: Enzymatic inhibition (mean as a percentage).

One may read the inhibition as the change of the read-out against control, counted positive when it falls. Consider `CCCCCCCCCCCCCCCC(=O)OC[C@H](O)[C@H]1OC(=O)C(O)=C1O` [6-ascorbyl palmitate, reference compound], for which, in experiment [1], the “Effect on hyaluronidase” value was “advantageously inhibits hyaluronidase, from 10 to 250 μM, with dose effect”. Also, in experiment [1] (setting [5]), the inhibition at 10 µM came out at 31% and the inhibition at 50 µM is 71%. In addition, in experiment [1] (25 μM, 0.5 U BTH, read-out: Enzymatic inhibition (mean as a percentage)), the inhibition at 25 µM stood at 57%. In addition, in experiment [1] (100 μM, 0.5 U BTH, read-out: Enzymatic inhibition (mean as a percentage)), the inhibition at 100 µM turned out to be 73%. Moreover, the inhibition at 200 µM in experiment [1] (200 μM, 0.5 U BTH, read-out: Enzymatic inhibition (mean as a percentage)) stood at 79%. In experiment [1] (250 μM, 0.5 U BTH, read-out: Enzymatic inhibition (mean as a percentage)), the inhibition at 250 µM came out at 112%.
In general, IC50 refers to the point on the concentration scale where inhibition reaches its midpoint. Take `CC/C=C\C/C=C\C/C=C\CCCCCCCC(=O)OC1=C(OC(=O)CCCCCCC/C=C\C/C=C\C/C=C\CC)C(C2COC(C)(C)O2)OC1=O` (centres unmarked) [Molecule 2, dioctadeca-9,12,15-trienoate of (9Z,9′Z,12Z,12′Z,15Z,15′Z)-2-(2,2-dimethyl-1,3-dioxolan-4-yl)-5-oxo-2,5-dihydrofuran-3,4-diyl]: in the experiment with B16-F10 cells, the “Inhibition of the synthesis of intracellular melanin compared with vitamin C” value (“Inhibition … compared with vitamin C” for short) is given as “greater than that of vitamin C”, the inhibition at 10 µM came out at 11%, the inhibition at 20 µM was 53% and the IC50 came to 20 µM. For the same compound, the “Proliferation of dermal papilla cells” value in experiment [2] was “induce proliferation of the cells but to a lesser extent than molecules 1 and 4”.
With `CCCCC/C=C\C/C=C\C/C=C\CCCCC(=O)OC1=C(OC(=O)CCCC/C=C\C/C=C\C/C=C\CCCCC)C(C2COC(C)(C)O2)OC1=O` (centres unmarked) [Molecule 3, dioctadeca-6,9,12-trienoate of (6Z,6′Z,9Z,9′Z,12Z,12′Z)-2-(2,2-dimethyl-1,3-dioxolan-4-yl)-5-oxo-2,5-dihydrofuran-3,4-diyl], in the experiment with B16-F10 cells, the “Inhibition … compared with vitamin C” value is given as “greater than that of vitamin C”, the inhibition at 10 µM amounted to 25%, the inhibition at 20 µM amounted to 50% and the IC50 amounted to 20 µM. Besides, in experiment [2], the “Proliferation of dermal papilla cells” value is “induce proliferation of the cells but to a lesser extent than molecules 1 and 4”. Besides, in the experiment on human hair follicle [3], the “D4 % activity (hair growth stimulation compared with the control)” value is listed as 25%, the D4 % growth is given as 52%, the “D8 % activity (hair growth stimulation compared with the control)” value is on record as 18% and the D8 % growth is reported as 85%.
Regarding `CCCCCCCC/C=C\CCCCCCCC(=O)OC1=C(OC(=O)CCCCCCC/C=C\CCCCCCCC)C(C2COC(C)(C)O2)OC1=O` (centres unmarked) [Molecule 4, dioleate of (Z)-2-(2,2-dimethyl-1,3-dioxolan-4-yl)-5-oxo-2,5-dihydrofuran-3,4-diyl], in the experiment with B16-F10 cells, the “Inhibition … compared with vitamin C” value is recorded as “greater than that of vitamin C”, the inhibition at 10 µM was -16%, the inhibition at 20 µM was 6% and the inhibition at 50 µM turned out to be 44%. In the experiment with B16-F10 cells, the IC50 stood at 53 µM. Further, in experiment [1], the “Effect on hyaluronidase” value is reported as “strongly inhibit hyaluronidase; also recorded: equivalent to or more active than ascorbyl palmitate”. Also, in experiment [1] (setting [5]), the inhibition at 10 µM was determined as 72% and the inhibition at 50 µM is 111%. The “Proliferation stimulation of dermal papilla cells” value in experiment [2] (6.25 μM, 60 h) amounted to 113.9%. For the same compound, in the experiment with human hair follicle [3], the “D4 % activity (hair growth stimulation compared with the control)” value turned out to be 19%, the D4 % growth is given as 51%, the “D8 % activity (hair growth stimulation compared with the control)” value worked out at 12% and the D8 % growth came to 84%. Moreover, the “Number of apoptotic bulbs at D11 (Number of total follicles)” value in the experiment with human hair follicle [4] (15 μM, 11 days of incubation) is 6 (12). Besides, in the experiment on human hair follicle [4] (15 μM, 11 days of incubation, control 75), the “% apoptosis” value was determined as 50%. Besides, in the experiment on human hair follicle [4] (11 days), the “Effect on hair degeneration” value is recorded as “marked limiting of hair degeneration”.
Regarding `CCCCC/C=C\C/C=C\CCCCCCCC(=O)OC1=C(O)C(C2COC(C)(C)O2)OC1=O` (centres unmarked) [Molecule 5, (9Z,12Z)-5-(2,2-dimethyl-1,3-dioxolan-4-yl)-4-hydroxy-2-oxo-2,5-dihydrofuran-3-yl octadeca-9,12-dienoate], in the experiment on B16-F10 cells, the “Inhibition … compared with vitamin C” value is on record as “greater than that of vitamin C”, the inhibition at 10 µM is 4%, the inhibition at 20 µM was 13% and the inhibition at 50 µM was determined as 35%. For the same compound, in the experiment with B16-F10 cells, the inhibition at 100 µM came to 78% and the IC50 worked out at 66 µM. Besides, the “Effect on hyaluronidase” value in experiment [1] is reported as “strongly inhibit hyaluronidase; also recorded: equivalent to or more active than ascorbyl palmitate”. In experiment [1] (setting [5]), the inhibition at 10 µM was 31% and the inhibition at 50 µM came to 76%.
For `CCCCCCCC/C=C\CCCCCCCC(=O)OC1=C(O)C(C2COC(C)(C)O2)OC1=O` (centres unmarked) [Molecule 6, 5-(2,2-dimethyl-1,3-dioxolan-4-yl)-4-hydroxy-2-oxo-2,5-dihydrofuran-3-yl oleate], in the experiment on B16-F10 cells, the “Inhibition … compared with vitamin C” value is given as “greater than that of vitamin C”, the inhibition at 50 µM stood at 7%, the inhibition at 100 µM amounted to 49% and the IC50 worked out at 105 µM. The “Effect on hyaluronidase” value in experiment [1] is on record as “strongly inhibit hyaluronidase; also recorded: equivalent to or more active than ascorbyl palmitate”. For the same compound, in experiment [1] (setting [5]), the inhibition at 10 µM was determined as 34% and the inhibition at 50 µM stood at 106%.
